Where only a bound is given, the exact number is not on record here.

Chain of GCN2 (Q9P2K8 whole entry): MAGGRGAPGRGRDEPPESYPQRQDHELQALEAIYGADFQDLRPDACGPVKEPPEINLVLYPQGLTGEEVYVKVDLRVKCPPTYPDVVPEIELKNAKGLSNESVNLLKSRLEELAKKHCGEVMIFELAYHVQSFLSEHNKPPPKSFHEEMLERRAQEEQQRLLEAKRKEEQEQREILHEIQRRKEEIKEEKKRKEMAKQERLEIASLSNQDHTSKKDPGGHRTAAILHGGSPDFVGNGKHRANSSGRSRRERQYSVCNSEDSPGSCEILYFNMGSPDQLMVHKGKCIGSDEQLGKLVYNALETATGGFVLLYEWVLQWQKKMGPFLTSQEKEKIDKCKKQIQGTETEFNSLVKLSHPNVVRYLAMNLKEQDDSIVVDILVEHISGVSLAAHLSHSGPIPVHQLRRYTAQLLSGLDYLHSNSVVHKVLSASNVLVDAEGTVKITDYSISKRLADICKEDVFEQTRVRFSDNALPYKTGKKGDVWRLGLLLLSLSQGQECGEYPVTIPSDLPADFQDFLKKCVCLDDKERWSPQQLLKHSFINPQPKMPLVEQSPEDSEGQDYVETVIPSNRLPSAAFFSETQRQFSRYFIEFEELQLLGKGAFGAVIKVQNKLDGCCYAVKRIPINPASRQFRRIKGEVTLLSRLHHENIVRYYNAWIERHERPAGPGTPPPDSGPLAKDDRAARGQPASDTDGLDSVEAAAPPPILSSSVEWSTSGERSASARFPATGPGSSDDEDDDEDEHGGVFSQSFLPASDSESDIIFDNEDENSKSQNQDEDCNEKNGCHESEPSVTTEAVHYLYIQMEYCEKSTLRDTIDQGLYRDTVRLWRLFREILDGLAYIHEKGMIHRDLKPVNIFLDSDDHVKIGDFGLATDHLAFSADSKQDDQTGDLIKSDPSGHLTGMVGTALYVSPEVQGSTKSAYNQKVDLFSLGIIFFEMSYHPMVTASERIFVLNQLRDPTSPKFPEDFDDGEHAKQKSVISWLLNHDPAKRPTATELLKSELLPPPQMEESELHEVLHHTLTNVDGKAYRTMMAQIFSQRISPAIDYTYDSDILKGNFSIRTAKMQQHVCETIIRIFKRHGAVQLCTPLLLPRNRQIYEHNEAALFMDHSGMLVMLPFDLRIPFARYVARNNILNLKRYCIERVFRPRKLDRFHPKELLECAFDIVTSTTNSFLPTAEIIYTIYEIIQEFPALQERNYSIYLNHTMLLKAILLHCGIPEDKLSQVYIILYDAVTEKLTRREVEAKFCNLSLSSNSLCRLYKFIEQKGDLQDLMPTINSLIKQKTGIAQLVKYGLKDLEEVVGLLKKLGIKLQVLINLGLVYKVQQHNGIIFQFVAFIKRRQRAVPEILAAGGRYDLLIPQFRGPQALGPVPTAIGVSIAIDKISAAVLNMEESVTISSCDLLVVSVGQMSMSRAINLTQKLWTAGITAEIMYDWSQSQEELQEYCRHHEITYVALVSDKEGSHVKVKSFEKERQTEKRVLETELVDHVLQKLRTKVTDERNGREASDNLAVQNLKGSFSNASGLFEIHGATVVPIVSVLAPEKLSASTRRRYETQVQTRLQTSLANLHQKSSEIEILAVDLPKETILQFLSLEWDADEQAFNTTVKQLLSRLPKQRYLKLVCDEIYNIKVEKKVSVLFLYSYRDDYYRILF

The assay addresses GCN2 (Homo sapiens (Human), UniProt Q9P2K8). Kind of assay: GCN2 Biochemical Assay (TR-FRET, GFP-eIF2S1 substrate phosphorylation). The conditions noted are these: read-out: IC50 (GCN2 Inhibitory Activity). In outline: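 TR-FRET readout (Ex 340, Em 490/520 nm) after 2–3 h with Tb-labelled phospho-eIF2S1 antibody in stop mix, following a 70 min room-temperature kinase step. Reaction: in-house GCN2, GFP-eIF2S1, ATP, tRNA in Tris pH 7.5 (2× stocks 1.6 nM, 50 nM, 0.2 mM); compounds tested at 10 concentrations, with a phospho-substrate artifact counter-plate.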
Regarding `Cc1cnc(Nc2cc(C)n(C)n2)nc1-c1c[nH]c2c(NC(=O)CN3CC[C@H](C(=O)N4CC=CCC4)C3)cccc12` [Example 69, (S)-N-(3-(2-((1,5-dimethyl-1H-pyrazol-3-yl)amino)-5-methylpyrimidin-4-yl)-1H-indol-7-yl)-2-(3-(1,2,3,6-tetrahydropyridine-1-carbonyl)pyrrolidin-1-yl)acetamide], the IC50 lay in the range of 10 to 100 nM. As for `Cc1cnc(Nc2cc(C)n(C)n2)nc1-c1c[nH]c2c(NC(=O)CN3CC[C@H](C(=O)N4CCSCC4)C3)cccc12` [Example 64, (S)-N-(3-(2-((1,5-dimethyl-1H-pyrazol-3-yl)amino)-5-methylpyrimidin-4-yl)-1H-indol-7-yl)-2-(3-(thiomorpholine-4-carbonyl)pyrrolidin-1-yl)acetamide], the figure is 10 to 100 nM; as for `Cc1cncc(-c2cccc3c2CN(c2cccc4c(-c5nc(Nc6cc(C)n(C)n6)ncc5C)c[nH]c24)C3=O)c1` [Example 477, 2-(3-(2-((1,5-dimethyl-1H-pyrazol-3-yl)amino)-5-methylpyrimidin-4-yl)-1H-indol-7-yl)-4-(5-methylpyridin-3-yl)isoindolin-1-one], less than 10 nM; as for `Cc1cnc(Nc2cc(C)n(C)n2)nc1-c1c[nH]c2c(NC(=O)CN3CC[C@H](Oc4cc(N5CCC(O)C5)ncn4)C3)cccc12` (stereo partly drawn) [Example 159, N-(3-(2-((1,5-dimethyl-1H-pyrazol-3-yl)amino)-5-methylpyrimidin-4-yl)-1H-indol-7-yl)-2-((3S)-3-((6-(3-hydroxypyrrolidin-1-yl)pyrimidin-4-yl)oxy)pyrrolidin-1-yl)acetamide], less than 10 nM. Consider `COC(=O)[C@@H]1C[C@H](Oc2ccnc(NC3CC3)n2)CN1CC(=O)Nc1cccc2c(-c3nc(Nc4cc(C)n(C)n4)ncc3C)c[nH]c12` [Example 55, methyl (2S,4S)-4-((2-(cyclopropylamino)pyrimidin-4-yl)oxy)-1-(2-((3-(2-((1,5-dimethyl-1H-pyrazol-3-yl)amino)-5-methylpyrimidin-4-yl)-1H-indol-7-yl)amino)-2-oxoethyl)pyrrolidine-2-carboxylate], for which the IC50 is less than 10 nM. As for `Cc1cnc(Nc2cc3n(n2)CCC3)nc1-c1c[nH]c2c(NC(=O)CN3CC[C@H](Oc4ccnc(NC5CC5)n4)C3)cccc12` [Example 16, (S)-2-(3-((2-(cyclopropylamino)pyrimidin-4-yl)oxy)pyrrolidin-1-yl)-N-(3-(2-((5,6-dihydro-4H-pyrrolo[1,2-b]pyrazol-2-yl)amino)-5-methylpyrimidin-4-yl)-1H-indol-7-yl)acetamide], the IC50 was less than 10 nM. In the case of `CCCN(CC)c1cc(O[C@H]2CCN(CC(=O)Nc3cccc4c(-c5nc(Nc6cc(C)n(C)n6)ncc5C)c[nH]c34)C2)ncn1` [Example 156, (S)-N-(3-(2-((1,5-dimethyl-1H-pyrazol-3-yl)amino)-5-methylpyrimidin-4-yl)-1H-indol-7-yl)-2-(3-((6-(ethyl(propyl)amino)pyrimidin-4-yl)oxy)pyrrolidin-1-yl)acetamide] it was 10 to 100 nM.

For the compound `Cc1cnc(Nc2cc(C)n(C)n2)nc1-c1c[nH]c2c(NC(=O)CN3CC[C@H](Oc4cccc(F)c4)C3)cccc12` [Example 81, (S)-N-(3-(2-((1,5-dimethyl-1H-pyrazol-3-yl)amino)-5-methylpyrimidin-4-yl)-1H-indol-7-yl)-2-(3-(3-fluorophenoxy)pyrrolidin-1-yl)acetamide], the IC50 fell in the range of 100 to 1000 nM. For `Cc1cnc(Nc2cc(C)n(C)n2)nc1-c1c[nH]c2c(NC(=O)CN3CC(Oc4cc(C(=O)NC5CC5)on4)C3)cccc12` [Example 33, N-cyclopropyl-3-((1-(2-((3-(2-((1,5-dimethyl-1H-pyrazol-3-yl)amino)-5-methylpyrimidin-4-yl)-1H-indol-7-yl)amino)-2-oxoethyl)azetidin-3-yl)oxy)isoxazole-5-carboxamide], the IC50 is 10 to 100 nM. In the case of `Cc1cnc(Nc2cc(C)n(C)n2)nc1-c1c[nH]c2c(NC(=O)CN3CC[C@H](Oc4ccc(F)c(F)c4)C3)cccc12` [Example 84, (S)-2-(3-(3,4-difluorophenoxy)pyrrolidin-1-yl)-N-(3-(2-((1,5-dimethyl-1H-pyrazol-3-yl)amino)-5-methylpyrimidin-4-yl)-1H-indol-7-yl)acetamide] it was 100 to 1000 nM; in that of `Cc1cnc(Nc2cc(C)n(C)n2)nc1-c1c[nH]c2c(NC(=O)CN3CC[C@@H](Nc4ccncc4)C3)cccc12` [Example 49, (R)-N-(3-(2-((1,5-dimethyl-1H-pyrazol-3-yl)amino)-5-methylpyrimidin-4-yl)-1H-indol-7-yl)-2-(3-(pyridin-4-ylamino)pyrrolidin-1-yl)acetamide], 10 to 100 nM.

Consider `Cc1cnc(Nc2cc(C)n(C)n2)nc1-c1c[nH]c2c(N3Cc4c(cccc4-c4ccnc(Cl)c4)C3=O)cccc12` [Example 402, 4-(2-chloropyridin-4-yl)-2-(3-(2-((1,5-dimethyl-1H-pyrazol-3-yl)amino)-5-methylpyrimidin-4-yl)-1H-indol-7-yl)isoindolin-1-one], for which the 50% inhibitory concentration (IC50) fell in the range of 10 to 100 nM. In the case of `Cc1cnc(Nc2cc(C)n(C)n2)nc1-c1c[nH]c2c(N3Cc4cccc(C5=CCCCC5)c4C3=O)cccc12` [Example 384, 7-(cyclohex-1-en-1-yl)-2-(3-(2-((1,5-dimethyl-1H-pyrazol-3-yl)amino)-5-methylpyrimidin-4-yl)-1H-indol-7-yl)isoindolin-1-one] it was 100 to 1000 nM; in that of `Cc1cnc(Nc2cc(C)n(C)n2)nc1-c1c[nH]c2c(NC(=O)C(=O)N3CCC(Oc4ccccn4)C3)cccc12` (centres unmarked) [Example 19], 10 to 100 nM; in that of `Cc1cnc(Nc2cc(C)n(C)n2)nc1-c1c[nH]c2c(NC(=O)CN3CC[C@H](Oc4cc(C5=CCOCC5)ncn4)C3)cccc12` [Example 251, (S)-2-(3-((6-(3,6-dihydro-2H-pyran-4-yl)pyrimidin-4-yl)oxy)pyrrolidin-1-yl)-N-(3-(2-((1,5-dimethyl-1H-pyrazol-3-yl)amino)-5-methylpyrimidin-4-yl)-1H-indol-7-yl)acetamide], 10 to 100 nM. With `Cc1cnc(Nc2cc(C)n(C)n2)nc1-c1c[nH]c2c(NC(=O)CN3CC[C@H](Oc4ncc(F)c(N5CCCCC5)n4)C3)cccc12` [Example 187, (S)-N-(3-(2-((1,5-dimethyl-1H-pyrazol-3-yl)amino)-5-methylpyrimidin-4-yl)-1H-indol-7-yl)-2-(3-((5-fluoro-4-(piperidin-1-yl)pyrimidin-2-yl)oxy)pyrrolidin-1-yl)acetamide], the concentration for half-maximal inhibition (IC50) was less than 10 nM.

In the case of `Cc1cnc(Nc2cc(C)n(C)n2)nc1-c1c[nH]c2c(N3C(=O)c4cccc(Br)c4C3=O)cccc12` [Example 262, 4-bromo-2-(3-(2-((1,5-dimethyl-1H-pyrazol-3-yl)amino)-5-methylpyrimidin-4-yl)-1H-indol-7-yl)isoindoline-1,3-dione], the IC50 is less than 10 nM.

`Cc1cnc(NC2CC2)nc1O[C@H]1CCN(CC(=O)Nc2cccc3c(-c4nc(Nc5cc(C)n(C)n5)ncc4C)c[nH]c23)C1` [Example 235, (S)-2-(3-((2-(cyclopropylamino)-5-methylpyrimidin-4-yl)oxy)pyrrolidin-1-yl)-N-(3-(2-((1,5-dimethyl-1H-pyrazol-3-yl)amino)-5-methylpyrimidin-4-yl)-1H-indol-7-yl)acetamide]: the half-inhibitory concentration (IC50) fell in the range of 10 to 100 nM.

For `CCN(CC)c1nc(O[C@H]2CCN(CC(=O)Nc3cccc4c(-c5nc(Nc6cc(C)n(C)n6)ncc5C)c[nH]c34)C2)ncc1F` [Example 183, (S)-2-(3-((4-(diethylamino)-5-fluoropyrimidin-2-yl)oxy)pyrrolidin-1-yl)-N-(3-(2-((1,5-dimethyl-1H-pyrazol-3-yl)amino)-5-methylpyrimidin-4-yl)-1H-indol-7-yl)acetamide], the IC50 is less than 10 nM. In the case of `Cc1cnc(Nc2cc(C)n(C)n2)nc1-c1c[nH]c2c(N3Cc4c(I)cccc4C3=O)cccc12` [Example 278, 2-(3-(2-((1,5-dimethyl-1H-pyrazol-3-yl)amino)-5-methylpyrimidin-4-yl)-1H-indol-7-yl)-4-iodoisoindolin-1-one] it was less than 10 nM. In the case of `Cc1cnc(Nc2cc(C)n(C)n2)nc1-c1c[nH]c2c(NC(=O)CN3CC[C@H](Oc4nc(NC5CCCCC5)ncc4F)C3)cccc12` [Example 228, (S)-2-(3-((2-(cyclohexylamino)-5-fluoropyrimidin-4-yl)oxy)pyrrolidin-1-yl)-N-(3-(2-((1,5-dimethyl-1H-pyrazol-3-yl)amino)-5-methylpyrimidin-4-yl)-1H-indol-7-yl)acetamide] it was 10 to 100 nM; in that of `Cc1cnc(Nc2cc(C)n(C)n2)nc1-c1c[nH]c2c(NC(=O)CN3CC[C@H](Oc4ccc(F)cc4Cl)C3)cccc12` [Example 85], 100 to 1000 nM; in that of `Cc1cnc(Nc2cc(C)n(C)n2)nc1-c1c[nH]c2c(NC(=O)CN3CC[C@H](Oc4ccnc(N5CCOCC5)n4)C3)cccc12` [Example 224, (S)-N-(3-(2-((1,5-dimethyl-1H-pyrazol-3-yl)amino)-5-methylpyrimidin-4-yl)-1H-indol-7-yl)-2-(3-((2-morpholinopyrimidin-4-yl)oxy)pyrrolidin-1-yl)acetamide], less than 10 nM. As for `Cc1cnc(Nc2cc(C)n(C)n2)nc1-c1c[nH]c2c(N3Cc4c(cccc4-c4cccnc4)C3=O)cccc12` [Example 388, 2-(3-(2-((1,5-dimethyl-1H-pyrazol-3-yl)amino)-5-methylpyrimidin-4-yl)-1H-indol-7-yl)-4-(pyridin-3-yl)isoindolin-1-one], the figure is less than 10 nM; as for `CCNC(=O)/C(C)=C/c1cccc2c1CN(c1cccc3c(-c4nc(Nc5cc(C)n(C)n5)ncc4C)c[nH]c13)C2=O` [Example 376, (E)-3-(2-(3-(2-((1,5-dimethyl-1H-pyrazol-3-yl)amino)-5-methylpyrimidin-4-yl)-1H-indol-7-yl)-1-oxoisoindolin-4-yl)-N-ethyl-2-methylacrylamide], less than 10 nM; as for `Cc1cnc(Nc2cc(C)n(C)n2)nc1-c1c[nH]c2c(N3Cc4c(cccc4-c4ccc(OC(F)(F)F)cc4)C3=O)cccc12` [Example 395, 2-(3-(2-((1,5-dimethyl-1H-pyrazol-3-yl)amino)-5-methylpyrimidin-4-yl)-1H-indol-7-yl)-4-(4-(trifluoromethoxy)phenyl)isoindolin-1-one], 10 to 100 nM.

The values are drawn from patent publication US20240025884A1 (Dong-A ST Co., Ltd., priority 2022, published 2024).
